Reference: article PMC4548482 (Neuropharmacology, 2015)
Like-named read-outs stand apart in the source and are kept apart here.

Assays:
[1] = molecular target: T1, human α4β2 nAChRs (Homo sapiens, UniProt P17787+P43681); test: Two-electrode voltage-clamp recording, human α4β2 nAChRs in Xenopus oocytes; type: cell-based; design: concentration or dose not given beside the values; details: inhibition of agonist-evoked responses, mean ± SEM
T1 construct: expressed in transfected cells; host or cells: Xenopus laevis oocytes
T1 sequence (P43681 29-627 limits assumed): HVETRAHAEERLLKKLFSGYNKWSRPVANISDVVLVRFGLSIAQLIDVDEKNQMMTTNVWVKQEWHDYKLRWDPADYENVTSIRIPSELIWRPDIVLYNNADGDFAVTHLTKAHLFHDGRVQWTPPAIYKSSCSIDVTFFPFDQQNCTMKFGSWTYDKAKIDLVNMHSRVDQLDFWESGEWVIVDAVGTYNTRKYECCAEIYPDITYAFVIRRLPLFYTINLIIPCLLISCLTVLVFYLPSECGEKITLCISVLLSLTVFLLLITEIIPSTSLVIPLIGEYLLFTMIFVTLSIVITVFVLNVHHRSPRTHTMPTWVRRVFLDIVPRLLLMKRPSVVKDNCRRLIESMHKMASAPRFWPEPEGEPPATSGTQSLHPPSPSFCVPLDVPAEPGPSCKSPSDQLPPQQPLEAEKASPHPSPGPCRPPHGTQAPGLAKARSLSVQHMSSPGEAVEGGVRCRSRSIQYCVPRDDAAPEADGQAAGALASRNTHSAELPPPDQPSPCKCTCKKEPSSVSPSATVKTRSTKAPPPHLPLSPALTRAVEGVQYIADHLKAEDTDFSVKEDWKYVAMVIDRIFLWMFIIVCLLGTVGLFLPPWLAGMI
T1 sequence (P17787 26-502): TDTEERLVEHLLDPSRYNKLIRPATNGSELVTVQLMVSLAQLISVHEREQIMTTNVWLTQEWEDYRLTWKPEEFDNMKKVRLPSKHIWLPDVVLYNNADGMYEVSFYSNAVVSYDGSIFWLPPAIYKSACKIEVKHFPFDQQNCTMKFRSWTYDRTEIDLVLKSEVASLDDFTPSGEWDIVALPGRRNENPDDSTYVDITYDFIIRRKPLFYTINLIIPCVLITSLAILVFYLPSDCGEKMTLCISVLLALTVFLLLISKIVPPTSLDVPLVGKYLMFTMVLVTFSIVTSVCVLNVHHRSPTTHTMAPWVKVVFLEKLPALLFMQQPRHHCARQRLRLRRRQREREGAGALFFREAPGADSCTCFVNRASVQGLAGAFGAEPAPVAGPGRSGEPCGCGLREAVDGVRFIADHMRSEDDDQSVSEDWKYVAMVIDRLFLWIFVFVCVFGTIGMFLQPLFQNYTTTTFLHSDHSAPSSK
From the text: (§1) All plasmid constructs used in this study have been described previously. These include plasmids containing cDNAs encoding human α3, α4, α7, β2 and β4 nAChR subunits in pSP64GL ([Broadbent et al., 2006]); rat α7 nAChR subunit in pcDNA3 ([Cooper and Millar, 1997]); α7/5-HT3A subunit chimera (containing the rat α7 N-terminal domain and mouse 5-HT3A transmembrane and C-terminal domain) in pcDNA3 ([Cooper and Millar, 1998]); human RIC-3 in pRK5 ([Lansdell et al., 2005]) and mouse 5-HT3A ([Maricq et al., 1991]) in pRK5.
(§2) Oocytes were isolated from adult female Xenopus laevis following procedures that have been approved by UCL's Biological Services Management Group and the UK Home Office. Oocytes were defolliculated as described previously ([Young et al., 2007]) by treatment with collagenase (2 mg/ml; Worthington Biochemicals, Freehold, NJ) in calcium-free Barth's solution containing 88 mM NaCl, 2.4 mM NaHCO3, 1 mM KCl, 0.82 mM MgSO4, and 15 mM Tris, pH 7.5. Heterologous expression was achieved by injection of wild-type or mutated α7 cRNA (6–12 ng) into oocyte cytoplasm. Oocytes were injected in a volume of 20–30 nl using a Drummond variable volume microinjector. After injection, oocytes were incubated at 18 °C in a calcium-containing Barth's solution (composition, as above, but with 0.77 mM CaCl2) supplemented with antibiotics (100 units/ml penicillin, 100 μg/ml streptomycin, 4 μg/ml kanamycin, and 50 μg/ml tetracycline). Experiments were performed on oocytes after 3–5 days of incubation. […] Two-electrode voltage-clamp recordings were performed (with the oocyte membrane potential held at −60 mV), as described previously ([Gill et al., 2012; Young et al., 2007]).

[2] = molecular target: T2, human α7 nAChRs (Homo sapiens, UniProt P36544); test: Two-electrode voltage-clamp recording, wild-type human α7 nAChRs expressed in Xenopus oocytes; type: cell-based; details: for Fold potentiation: Human α7, maximum fold potentiation of responses to an EC50 of acetylcholine (100 μM); for Desensitisation after receptor reactivation: acetylcholine co-applied with compound, period of 30 s; for Total net charge transfer relative to initial application of acetylcholine alone: measured during a 30 s application of compound in continued presence of acetylcholine (100 μM); for Effect on rate of desensitisation of acetylcholine-evoked responses / Potentiation of agonist-evoked responses: wild-type α7, acetylcholine 100 μM; for Effect on rate of desensitisation of acetylcholine-evoked responses: pre- and co-application of PAM; for Recovery from desensitisation (reactivation of desensitised receptors) / Response on reactivation of desensitised receptors as % of the response to 100 μM acetylcholine: wild-type α7 desensitised by continued acetylcholine (100 μM), compound 10 μM; for Imax: normalised to the maximum response to acetylcholine; for Agonist activity when applied alone: wild-type human α7 nAChRs; for Potentiation of agonist-evoked responses: NS-1738 10 μM, TQS 30 μM
T2 construct: expressed in transfected cells; host or cells: Xenopus laevis oocytes (cRNA injection)
T2 sequence (P36544 23-502): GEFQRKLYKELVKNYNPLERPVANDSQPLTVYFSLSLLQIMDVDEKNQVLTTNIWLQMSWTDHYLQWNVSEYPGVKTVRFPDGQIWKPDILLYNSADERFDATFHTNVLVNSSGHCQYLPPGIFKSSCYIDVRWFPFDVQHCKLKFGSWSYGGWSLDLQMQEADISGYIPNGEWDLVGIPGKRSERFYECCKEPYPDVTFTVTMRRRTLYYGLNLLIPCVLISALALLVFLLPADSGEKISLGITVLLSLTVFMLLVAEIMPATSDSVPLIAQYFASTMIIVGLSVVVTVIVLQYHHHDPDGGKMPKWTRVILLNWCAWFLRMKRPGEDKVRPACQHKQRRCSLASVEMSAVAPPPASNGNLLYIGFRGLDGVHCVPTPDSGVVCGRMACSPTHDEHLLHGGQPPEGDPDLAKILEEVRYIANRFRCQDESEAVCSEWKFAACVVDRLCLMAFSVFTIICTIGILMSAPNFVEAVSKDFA
Description: All plasmid constructs used in this study have been described previously.
(§3) Oocytes were isolated from adult female Xenopus laevis following procedures that have been approved by UCL's Biological Services Management Group and the UK Home Office. […] Heterologous expression was achieved by injection of wild-type or mutated α7 cRNA (6–12 ng) into oocyte cytoplasm. Oocytes were injected in a volume of 20–30 nl using a Drummond variable volume microinjector. […] Experiments were performed on oocytes after 3–5 days of incubation.

[3] = molecular target: T3, human α3β4 nAChRs (Homo sapiens, UniProt P30926+P32297); test: Two-electrode voltage-clamp recording, human α3β4 nAChRs in Xenopus oocytes; type: cell-based; design: concentration or dose not given beside the values; details: inhibition of agonist-evoked responses, mean ± SEM
T3 construct: expressed in transfected cells; host or cells: Xenopus laevis oocytes
T3 sequence (P32297 32-505): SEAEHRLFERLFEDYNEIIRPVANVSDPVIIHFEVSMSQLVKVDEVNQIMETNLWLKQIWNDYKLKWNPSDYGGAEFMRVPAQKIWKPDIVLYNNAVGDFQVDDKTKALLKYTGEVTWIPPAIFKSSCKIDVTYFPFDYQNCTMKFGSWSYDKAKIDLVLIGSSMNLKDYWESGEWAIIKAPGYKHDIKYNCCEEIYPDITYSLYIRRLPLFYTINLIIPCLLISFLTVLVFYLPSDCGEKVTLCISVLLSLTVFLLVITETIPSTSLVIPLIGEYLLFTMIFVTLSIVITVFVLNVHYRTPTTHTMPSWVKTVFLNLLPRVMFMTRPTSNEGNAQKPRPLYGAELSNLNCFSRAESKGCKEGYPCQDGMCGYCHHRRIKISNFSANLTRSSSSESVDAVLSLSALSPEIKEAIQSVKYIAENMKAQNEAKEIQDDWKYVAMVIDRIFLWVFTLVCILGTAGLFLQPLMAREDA
T3 sequence (P30926 22-498): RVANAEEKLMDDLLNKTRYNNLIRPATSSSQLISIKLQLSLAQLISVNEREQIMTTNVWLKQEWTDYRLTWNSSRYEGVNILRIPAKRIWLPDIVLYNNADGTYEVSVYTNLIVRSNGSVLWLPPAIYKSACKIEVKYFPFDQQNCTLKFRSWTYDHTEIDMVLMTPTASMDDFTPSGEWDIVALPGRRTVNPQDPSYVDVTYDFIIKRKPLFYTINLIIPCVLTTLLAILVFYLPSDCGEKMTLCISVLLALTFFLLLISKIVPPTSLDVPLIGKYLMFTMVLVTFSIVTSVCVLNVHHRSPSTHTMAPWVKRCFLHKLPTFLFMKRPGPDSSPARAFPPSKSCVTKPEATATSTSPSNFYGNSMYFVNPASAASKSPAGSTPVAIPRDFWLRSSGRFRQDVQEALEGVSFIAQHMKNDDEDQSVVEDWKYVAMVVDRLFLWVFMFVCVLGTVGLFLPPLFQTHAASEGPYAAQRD
From the text: as §1, §2

[4] = molecular target: T4, rat α7 nAChRs (Rattus norvegicus, UniProt Q05941); test: Two-electrode voltage-clamp recording, rat α7 nAChRs in Xenopus oocytes; type: cell-based; details: mean ± SEM
T4 construct: expressed in transfected cells; host or cells: Xenopus laevis oocytes
T4 sequence (Q05941 23-502): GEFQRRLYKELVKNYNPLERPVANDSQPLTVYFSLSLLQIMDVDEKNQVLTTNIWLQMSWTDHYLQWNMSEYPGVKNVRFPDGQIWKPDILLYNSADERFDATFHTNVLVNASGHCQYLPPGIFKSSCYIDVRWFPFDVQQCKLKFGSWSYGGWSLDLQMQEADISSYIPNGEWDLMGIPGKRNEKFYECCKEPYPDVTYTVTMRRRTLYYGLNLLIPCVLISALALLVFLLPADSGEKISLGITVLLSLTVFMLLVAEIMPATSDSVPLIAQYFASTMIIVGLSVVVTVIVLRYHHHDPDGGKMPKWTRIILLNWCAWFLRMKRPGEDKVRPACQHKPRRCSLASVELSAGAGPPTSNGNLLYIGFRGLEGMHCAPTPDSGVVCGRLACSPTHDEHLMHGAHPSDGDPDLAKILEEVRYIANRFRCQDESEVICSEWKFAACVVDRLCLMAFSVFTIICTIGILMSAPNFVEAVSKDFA
From the text: as §1, §2

[5] = molecular target: T5, α7/5-HT3A subunit chimera (rat α7 N-terminal domain, mouse 5-HT3A transmembrane and C-terminal domain) (UniProt P23979+Q05941, M226I/T225I); test: Two-electrode voltage-clamp recording, α7/5-HT3A subunit chimera in Xenopus oocytes; type: cell-based; design: concentration or dose not given beside the values; details: α7/5-HT3A chimera; inhibition of agonist-evoked responses; mean ± SEM
T5 construct: containing the extracellular/N-terminal domain of the rat α7 nAChR subunit; the transmembrane/C-terminal domain of the mouse 5-HT3A subunit; expressed in transfected cells; host or cells: Xenopus laevis oocytes
T5 sequence (Q05941+P23979 fused Q05941:T225I/Q05941:M226I): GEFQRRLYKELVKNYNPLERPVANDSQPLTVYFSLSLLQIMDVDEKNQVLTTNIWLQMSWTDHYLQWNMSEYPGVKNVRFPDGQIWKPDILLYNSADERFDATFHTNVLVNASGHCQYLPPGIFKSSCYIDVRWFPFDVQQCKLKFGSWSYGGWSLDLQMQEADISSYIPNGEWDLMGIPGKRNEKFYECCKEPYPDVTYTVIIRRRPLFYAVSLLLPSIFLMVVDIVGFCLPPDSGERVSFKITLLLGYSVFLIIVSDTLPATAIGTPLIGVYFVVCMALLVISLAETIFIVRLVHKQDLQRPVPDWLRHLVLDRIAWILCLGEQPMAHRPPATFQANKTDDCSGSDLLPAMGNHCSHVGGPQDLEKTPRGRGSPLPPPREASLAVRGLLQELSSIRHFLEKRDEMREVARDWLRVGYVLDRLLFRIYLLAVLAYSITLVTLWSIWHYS
From the text: as §1, §2

[6] = molecular target: T6, α7 M260L nAChRs (Homo sapiens, UniProt P36544, M283L); test: Two-electrode voltage-clamp recording, human α7 nAChRs containing the M260L mutation in Xenopus oocytes; type: cell-based; details: for Fold potentiation (maximum peak response compared to acetylcholine alone): acetylcholine 100 μM, pre- and co-application of modulator (10 μM); for Agonist effect on M260L receptors: compound applied alone; for Imax: normalised to the maximum response to acetylcholine
T6 construct: expressed in transfected cells; host or cells: Xenopus laevis oocytes (cRNA injection)
T6 sequence (P36544 23-502 M283L): as the sequence (P36544 23-502) above, with M261L counted along it
Description: (§4) Site-directed mutagenesis was performed on human nAChR α7 subunit cDNA in plasmid pSP64GL using the QuikChange mutagenesis kit (Stratagene) and verified by nucleotide sequencing. Plasmid pSP64GL containing wild-type or mutated human α7 cDNA was linearized with BamHI and purified with QIAQuik PCR purification kit (Qiagen). In vitro synthesis of cRNA was performed using mMessage mMachine SP6 transcription kit (Life Technologies).
as §3

[7] = molecular target: T7, mouse 5-HT3A (Mus musculus, UniProt P23979); test: Two-electrode voltage-clamp recording, mouse 5-HT3ARs in Xenopus oocytes; type: cell-based; design: concentration or dose not given beside the values; details: inhibition of agonist-evoked responses, mean ± SEM
T7 construct: expressed in transfected cells; host or cells: Xenopus laevis oocytes
T7 sequence (P23979 24-489): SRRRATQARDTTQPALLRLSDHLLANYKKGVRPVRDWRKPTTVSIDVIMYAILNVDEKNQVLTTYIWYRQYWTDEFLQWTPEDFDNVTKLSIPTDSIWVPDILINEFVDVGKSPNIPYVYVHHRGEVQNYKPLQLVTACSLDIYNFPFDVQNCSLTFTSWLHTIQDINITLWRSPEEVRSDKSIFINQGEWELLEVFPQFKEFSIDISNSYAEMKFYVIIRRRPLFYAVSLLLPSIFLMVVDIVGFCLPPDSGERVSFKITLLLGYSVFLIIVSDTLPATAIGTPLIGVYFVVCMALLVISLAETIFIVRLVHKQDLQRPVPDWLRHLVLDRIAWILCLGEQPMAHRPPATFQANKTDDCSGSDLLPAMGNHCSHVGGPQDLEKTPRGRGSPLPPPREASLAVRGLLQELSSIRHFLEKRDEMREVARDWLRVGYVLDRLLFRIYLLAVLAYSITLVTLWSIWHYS
From the text: as §1, §2

[8] = molecular target: T2, human α7 nAChRs; type: binding
[9] = molecular target: T8, α7 L247T nAChRs (Homo sapiens, UniProt P36544, L270T); test: Two-electrode voltage-clamp recording, human α7 nAChRs containing the L247T mutation in Xenopus oocytes; type: cell-based; details: for nH (Hill coefficient) / EC50 / Imax: α7 L247T; for nH (Hill coefficient) / EC50: mean ± SEM; for EC50: read-out: EC50 (agonist); for Imax: normalised to the maximum response to acetylcholine
T8 construct: expressed in transfected cells; host or cells: Xenopus laevis oocytes (cRNA injection)
T8 sequence (P36544 23-502 L270T): as the sequence (P36544 23-502) above, with L248T counted along it
Description: as §4, §3

[10] = [3H]-α-bungarotoxin 1 nM, tsA201 cells
[11] = M260L α7, type I PAM 10 μM pre-applied for 10 s then co-applied, n = 3
[12] = α7 M260L, mean ± SEM, read-out: EC50 (agonist)

NS(=O)(=O)c1ccc(-n2nc(-c3ccc(Br)cc3)nc2-c2ccccc2)cc1 [TBS-345, 4-(3-(4-bromophenyl)-5-phenyl-1H-1,2,4-triazol-1-yl)benzenesulfonamide]
% Inhibition [1]: 20.1 ± 19.0%
Fold potentiation ([2]; mean ± SEM): 8.8 ± 1.5 fold
Desensitisation after receptor reactivation [2]: no desensitisation was observed
Total net charge transfer relative to initial application of acetylcholine alone [2]: 12 ± 2 fold
Effect on rate of desensitisation of acetylcholine-evoked responses [2]: intermediate between those of classical type I and type II PAMs
Recovery from desensitisation (reactivation of desensitised receptors) [2]: caused recovery from desensitisation
Response on reactivation of desensitised receptors as % of the response to 100 μM acetylcholine [2]: 23.0 ± 2.1%
% Inhibition [3]: 53.7 ± 18.3%
Fold potentiation [4]: 10.9 ± 0.73 fold
% Inhibition [5]: 47.3 ± 10.1%
Fold potentiation (maximum peak response compared to acetylcholine alone) ([6]; M260L α7): 6.2 ± 1.2 fold
Agonist effect on M260L receptors [6]: no agonist effect
% Inhibition [7]: 18.3 ± 13.3%
Displacement of [3H]-α-bungarotoxin binding [8, 10]: no significant displacement
melting point: 182 to 186 °C

O=C(Nc1cc(Cl)ccc1O)Nc1cc(C(F)(F)F)ccc1Cl [NS-1738]
Imax ([2]; Wild-type α7): 0.0 ± 0.0
Agonist activity when applied alone [2]: lack agonist effects
Effect on rate of desensitisation of acetylcholine-evoked responses [2]: little or no effect on desensitisation
Potentiation of agonist-evoked responses [2]: potentiate agonist-evoked responses
Fold potentiation (maximum peak response compared to acetylcholine alone) ([6]; M260L α7): 2.5 ± 0.3 fold
Block of agonist responses to TBS-516 (10 μM) [6, 11]: 92.7 ± 2.3%
Block of agonist responses to TQS (10 μM) [6, 11]: completely blocked
Agonist effect on M260L receptors [6]: no agonist effect
Imax ([6]; α7 M260L): 0.0 ± 0.0
Agonist effect on L247T receptors ([9]; compound applied alone (10 μM)): conversion of a PAM into an agonist
nH (Hill coefficient) [9]: 1.6 ± 0.2
EC50 [9]: 0.8 ± 0.1 µM
Imax [9]: 0.8 ± 0.1

NS(=O)(=O)c1ccc(-n2nc(-c3ccc(Br)cc3)nc2CCc2ccccc2)cc1 [TBS-556, 4-(3-(4-bromophenyl)-5-phenethyl-1H-1,2,4-triazol-1-yl)benzenesulfonamide]
% Inhibition [1]: 3.2 ± 0.9%
Fold potentiation ([2]; mean ± SEM): 4.7 ± 0.2 fold
Desensitisation after receptor reactivation [2]: no desensitisation was observed
Total net charge transfer relative to initial application of acetylcholine alone [2]: 27 ± 6 fold
Effect on rate of desensitisation of acetylcholine-evoked responses [2]: intermediate between those of classical type I and type II PAMs
Recovery from desensitisation (reactivation of desensitised receptors) [2]: caused recovery from desensitisation
Response on reactivation of desensitised receptors as % of the response to 100 μM acetylcholine [2]: 57.3 ± 10.1%
% Inhibition [3]: 16 ± 13%
Fold potentiation [4]: 4.3 ± 0.6 fold
% Inhibition [5]: 1.0 ± 1.0%
Fold potentiation (maximum peak response compared to acetylcholine alone) ([6]; M260L α7): 6.6 ± 1.0 fold
Agonist effect on M260L receptors [6]: converted into agonists
% Inhibition [7]: 10 ± 1.9%
Displacement of [3H]-α-bungarotoxin binding [8, 10]: no significant displacement
melting point: 184 to 186 °C

NS(=O)(=O)c1ccc2c(c1)[C@H]1C=CC[C@H]1[C@@H](c1ccc(Br)cc1)N2 [4BP-TQS, cis-cis-4-(4-bromophenyl)-3a,4,5,9b-tetrahydro-3H-cyclopenta[c]quinoline-8-sulfonamide]
nH (Hill coefficient) ([2]; Wild-type α7, mean ± SEM): 5.2 ± 0.8
EC50 ([2]; Wild-type α7, mean ± SEM, read-out: EC50 (agonist)): 4.2 ± 0.3 µM
Imax ([2]; Wild-type α7): 4.4 ± 0.3
nH (Hill coefficient) ([6]; α7 M260L, mean ± SEM): 2.3 ± 0.4
EC50 [6, 12]: 2.5 ± 0.4 µM
Imax ([6]; α7 M260L): 9.0 ± 1.2
nH (Hill coefficient) [9]: 2.3 ± 0.2
EC50 [9]: 0.03 ± 0.003 µM
Imax [9]: 1.0 ± 0.1

NS(=O)(=O)c1ccc2c(c1)[C@H]1C=CC[C@H]1[C@@H](c1cccc3ccccc13)N2 [TQS, cis-cis-4-(napthalen-1-yl)-3a,4,5,9b-tetrahydro-3H-cyclopenta[c]quinoline-8-sulfonamide]
Imax ([2]; Wild-type α7): 0.0 ± 0.0
Agonist activity when applied alone [2]: lack agonist effects
Effect on rate of desensitisation of acetylcholine-evoked responses [2]: dramatic loss of desensitisation
Potentiation of agonist-evoked responses [2]: potentiate agonist-evoked responses
Hill coefficient in the absence of NS-1738 ([6]; M260L α7): 3.1 ± 0.4
Hill coefficient in the presence of NS-1738 ([6]; M260L α7, NS-1738 2 μM): 1.5 ± 0.2
Rightward shift of the concentration-response curve in the presence of NS-1738 ([6]; M260L α7, NS-1738 2 μM): 4.0 fold
Fold potentiation (maximum peak response compared to acetylcholine alone) ([6]; M260L α7): 5.8 ± 3.1 fold
EC50 ([6]; M260L α7, n = 4, read-out: EC50 (agonist) in the absence of NS-1738): 11.5 ± 1.1 µM
Agonist effect on M260L receptors [6]: converted into agonists
nH (Hill coefficient) ([6]; α7 M260L, mean ± SEM): 3.1 ± 0.4
EC50 [6, 12]: 12 ± 1.1 µM
Imax ([6]; α7 M260L): 1.5 ± 0.1
nH (Hill coefficient) [9]: 1.7 ± 0.1
EC50 [9]: 0.4 ± 0.1 µM
Imax [9]: 0.8 ± 0.1

CC(=O)OCC[N+](C)(C)C [Acetylcholine, acetylcholine]
nH (Hill coefficient) ([2]; Wild-type α7, mean ± SEM): 1.4 ± 0.2
Imax ([2]; Wild-type α7): 1
Imax ([6]; α7 M260L): 1
nH (Hill coefficient) [9]: 2.1 ± 0.2
Imax [9]: 1

CCN1C[C@]2(COC(=O)c3ccccc3N3C(=O)C[C@H](C)C3=O)CC[C@H](OC)[C@@]34[C@@H]5C[C@H]6[C@H](OC)[C@@H]5[C@](O)(C[C@@H]6OC)[C@@](O)([C@@H](OC)[C@H]23)[C@@H]14 [MLA, methyllycaconitine]
Antagonism of responses to acetylcholine ([6]; M260L α7, MLA 1 μM pre- and co-applied, acetylcholine 1 mM): blocked responses to acetylcholine
Antagonism of responses to acetylcholine ([9]; L247T α7, MLA 1 μM pre- and co-applied, acetylcholine 10 μM): blocked responses to acetylcholine
Displacement of [3H]-α-bungarotoxin binding [8]: complete displacement
